Patent publication US10810329B2, “In silico design of peptides equilibrated in a lipid bilayer with partition free energies indicating probability of antimicrobial activity” (priority 2015, dated 2020)
Values after ≈ are worked out from the molar mass of the structure shown. Peptide text beside a SMILES is read from it.

What was measured:
[1] = tested on: Escherichia coli strain (ATCC 25922); type: cell-based
Description: (§1) Minimal inhibitory concentration (MIC) represents for the lowest concentration of peptide at which the AMP can still kill 90% of the bacteria. All MIC tests for WLK peptide series SEQ ID NO:1-13 were measured against Escherichia coli strain (ATCC 25922) in triplicate. Peptide concentration was determined by UV spectrophotometer (Ultrospec 1100 pro from Amersham Biosciences) at 280 nm with proper extinction coefficient. (Gill S. C. & Von Hippel P. H., Analytical biochemistry 1989, 182(2), 319-326). All of the samples were prepared from a stock solution containing peptides of concentrations 5, 2.5, 1.25, 0.625, 0.313, 0.156 and 0.078 mg/ml. Bacteria culture in the middle of logarithmic growth at a concentration of 5×10^5 colony-formation unit (CFU) and protein solution at the aforementioned concentrations were uniformly mixed in a 96-well culture plate (each well contains 1 microliter protein solution and 99 microliter of bacteria culture). After growing the culture at 37° C. for 16 hours, how bacterial growth was inhibited was measured by Thermo Max (Molecular Devices) at the wavelength of 600 nm. The MIC values were determined by triplicates of the above experiments.

E. coli ATCC 25922 = type: cell-based, Escherichia coli; settings: for Antimicrobial activity (MIC) Experimental values: ATCC 25922; for MIC in MH medium: ATCC 25922, 16 h
Description: as §1, with “MIC: Minimal Inhibitory Concentration of AMPs in MH Medium Against E. coli ATCC 25922 Minimal” for “Minimal”

Row | Structure (SMILES) | MIC in LYM medium, NaCl 50 [1] [µg/mL] | MIC in LYM medium, NaCl 100 [1] [µg/mL] | MIC in LYM medium, NaCl 200 [1] [µg/mL] | MIC in LYM medium, NaCl 300 [1] [µg/mL] | MIC in LYM medium, control [1] [µg/mL] | Antimicrobial activity (MIC) Experimental values (E. coli ATCC 25922) [µg/mL] | MIC in MH medium (E. coli ATCC 25922) [µg/mL]
1 | CC(C)C[C@H](NC(=O)[C@H](Cc1c[nH]c2ccccc12)NC(=O)[C@H](CCCCN)NC(=O)[C@H](CC(C)C)NC(=O)[C@H](Cc1c[nH]c2ccccc12)NC(=O)[C@H](CCCCN)NC(=O)[C@H](CC(C)C)NC(=O)[C@H](Cc1c[nH]c2ccccc12)NC(=O)[C@@H](N)CCCCN)C(=O)N[C@@H](CCCCN)C(=O)N[C@@H](CCCCN)C(=O)N[C@@H](CCCCN)C(=O)N[C@@H](CCCCN)C(=O)O [SEQ ID NO. 2, KWLKWLKWLKKKK] (H-KWLKWLKWLKKKK-OH; N-terminus and C-terminus assumed) | 1.56 (≈ 0.86 µM) | 6.25 (≈ 3.45 µM) | 12.5 (≈ 6.89 µM) | 12.5 (≈ 6.89 µM) | 1.56 (≈ 0.86 µM) | 6.25 | 6.25 (≈ 3.45 µM)
2 | CC(C)C[C@H](NC(=O)[C@H](Cc1c[nH]c2ccccc12)NC(=O)[C@H](CCCCN)NC(=O)[C@H](CC(C)C)NC(=O)[C@H](Cc1c[nH]c2ccccc12)NC(=O)[C@H](CCCCN)NC(=O)[C@H](CC(C)C)NC(=O)[C@@H](N)Cc1c[nH]c2ccccc12)C(=O)N[C@@H](CCCCN)C(=O)N[C@@H](CCCCN)C(=O)N[C@@H](CCCCN)C(=O)N[C@@H](CCCCN)C(=O)N[C@@H](CCCCN)C(=O)O [SEQ ID NO. 3, WLKWLKWLKKKKK] (H-WLKWLKWLKKKKK-OH; N-terminus and C-terminus assumed) | 3.13 (≈ 1.73 µM) | 3.13 (≈ 1.73 µM) | 12.5 (≈ 6.89 µM) | 25 (≈ 13.8 µM) | 1.56 (≈ 0.86 µM) | 6.25 | 6.25 (≈ 3.45 µM)
3 | CC(C)C[C@H](NC(=O)[C@H](Cc1c[nH]c2ccccc12)NC(=O)[C@H](CCCCN)NC(=O)[C@H](CC(C)C)NC(=O)[C@H](Cc1c[nH]c2ccccc12)NC(=O)[C@H](CCCCN)NC(=O)[C@H](CCCCN)NC(=O)[C@H](CCCCN)NC(=O)[C@H](CCCCN)NC(=O)[C@H](CCCCN)NC(=O)[C@H](CC(C)C)NC(=O)[C@@H](N)Cc1c[nH]c2ccccc12)C(=O)N[C@@H](CCCCN)C(=O)O [SEQ ID NO. 9, WLKKKKKWLKWLK] (H-WLKKKKKWLKWLK-OH; N-terminus and C-terminus assumed) | 3.13 (≈ 1.73 µM) | 3.13 (≈ 1.73 µM) | 12.5 (≈ 6.89 µM) | 50 (≈ 27.6 µM) | 3.13 (≈ 1.73 µM) | 6.25 | 6.25 (≈ 3.45 µM)
4 | CC(C)C[C@H](NC(=O)[C@H](Cc1c[nH]c2ccccc12)NC(=O)[C@H](CCCCN)NC(=O)[C@H](CC(C)C)NC(=O)[C@H](Cc1c[nH]c2ccccc12)NC(=O)[C@H](CCCCN)NC(=O)[C@H](CC(C)C)NC(=O)[C@H](Cc1c[nH]c2ccccc12)NC(=O)[C@H](CCCCN)NC(=O)[C@@H](N)CCCCN)C(=O)N[C@@H](CCCCN)C(=O)N[C@@H](CCCCN)C(=O)N[C@@H](CCCCN)C(=O)O [SEQ ID NO. 1, KKWLKWLKWLKKK, reference compound] (H-KKWLKWLKWLKKK-OH; N-terminus and C-terminus assumed) | 1.56 (≈ 0.86 µM) | 3.13 (≈ 1.73 µM) | 6.25 (≈ 3.45 µM) | 6.25 (≈ 3.45 µM) | 1.56 (≈ 0.86 µM) | 3.13 | 3.13 (≈ 1.73 µM)
5 | CC(C)C[C@H](NC(=O)[C@H](Cc1c[nH]c2ccccc12)NC(=O)[C@H](CCCCN)NC(=O)[C@H](CC(C)C)NC(=O)[C@H](Cc1c[nH]c2ccccc12)NC(=O)[C@H](CCCCN)NC(=O)[C@H](CCCCN)NC(=O)[C@H](CCCCN)NC(=O)[C@H](CCCCN)NC(=O)[C@H](CCCCN)NC(=O)[C@H](CC(C)C)NC(=O)[C@H](Cc1c[nH]c2ccccc12)NC(=O)[C@@H](N)CCCCN)C(=O)O [SEQ ID NO. 8, KWLKKKKKWLKWL] (H-KWLKKKKKWLKWL-OH; N-terminus and C-terminus assumed) | 3.13 (≈ 1.73 µM) | 3.13 (≈ 1.73 µM) | 6.25 (≈ 3.45 µM) | 12.5 (≈ 6.89 µM) | 3.13 (≈ 1.73 µM) | 6.25 | 6.25 (≈ 3.45 µM)
6 | CC(C)C[C@H](NC(=O)[C@H](Cc1c[nH]c2ccccc12)NC(=O)[C@H](CCCCN)NC(=O)[C@H](CCCCN)NC(=O)[C@H](CCCCN)NC(=O)[C@H](CCCCN)NC(=O)[C@H](CCCCN)NC(=O)[C@H](CC(C)C)NC(=O)[C@H](Cc1c[nH]c2ccccc12)NC(=O)[C@H](CCCCN)NC(=O)[C@@H](N)CC(C)C)C(=O)N[C@@H](CCCCN)C(=O)N[C@@H](Cc1c[nH]c2ccccc12)C(=O)O [SEQ ID NO. 7, LKWLKKKKKWLKW] (H-LKWLKKKKKWLKW-OH; N-terminus and C-terminus assumed) | 3.13 (≈ 1.73 µM) | 6.25 (≈ 3.45 µM) | 12.5 (≈ 6.89 µM) | 50 (≈ 27.6 µM) | 3.13 (≈ 1.73 µM) | 12.5 | 12.5 (≈ 6.89 µM)
7 | CC(C)C[C@H](NC(=O)[C@H](Cc1c[nH]c2ccccc12)NC(=O)[C@H](CCCCN)NC(=O)[C@H](CCCCN)NC(=O)[C@H](CCCCN)NC(=O)[C@H](CCCCN)NC(=O)[C@H](CCCCN)NC(=O)[C@H](CC(C)C)NC(=O)[C@H](Cc1c[nH]c2ccccc12)NC(=O)[C@H](CCCCN)NC(=O)[C@H](CC(C)C)NC(=O)[C@@H](N)Cc1c[nH]c2ccccc12)C(=O)N[C@@H](CCCCN)C(=O)O [SEQ ID NO. 6, WLKWLKKKKKWLK] (H-WLKWLKKKKKWLK-OH; N-terminus and C-terminus assumed) | 3.13 (≈ 1.73 µM) | 6.25 (≈ 3.45 µM) | 12.5 (≈ 6.89 µM) | 25 (≈ 13.8 µM) | 1.56 (≈ 0.86 µM) | 6.25 | 6.25 (≈ 3.45 µM)
8 | CC(C)C[C@H](NC(=O)[C@H](Cc1c[nH]c2ccccc12)NC(=O)[C@H](CCCCN)NC(=O)[C@H](CC(C)C)NC(=O)[C@H](Cc1c[nH]c2ccccc12)NC(=O)[C@H](CCCCN)NC(=O)[C@H](CCCCN)NC(=O)[C@H](CCCCN)NC(=O)[C@H](CCCCN)NC(=O)[C@H](CCCCN)NC(=O)[C@@H](N)CC(C)C)C(=O)N[C@@H](CCCCN)C(=O)N[C@@H](Cc1c[nH]c2ccccc12)C(=O)O [SEQ ID NO. 10, LKKKKKWLKWLKW] (H-LKKKKKWLKWLKW-OH; N-terminus and C-terminus assumed) | 3.13 (≈ 1.73 µM) | 3.13 (≈ 1.73 µM) | 6.25 (≈ 3.45 µM) | 25 (≈ 13.8 µM) | 3.13 (≈ 1.73 µM) | 6.25 | 6.25 (≈ 3.45 µM)
9 | CC(C)C[C@H](NC(=O)[C@H](Cc1c[nH]c2ccccc12)NC(=O)[C@H](CCCCN)NC(=O)[C@H](CC(C)C)NC(=O)[C@H](Cc1c[nH]c2ccccc12)NC(=O)[C@H](CCCCN)NC(=O)[C@H](CC(C)C)NC(=O)[C@H](Cc1c[nH]c2ccccc12)NC(=O)[C@H](CCCCN)NC(=O)[C@H](CCCCN)NC(=O)[C@@H](N)CCCCN)C(=O)N[C@@H](CCCCN)C(=O)N[C@@H](CCCCN)C(=O)O [SEQ ID NO. 13, KKKWLKWLKWLKK] (H-KKKWLKWLKWLKK-OH; N-terminus and C-terminus assumed) | 3.13 (≈ 1.73 µM) | 1.56 (≈ 0.86 µM) | 3.13 (≈ 1.73 µM) | 12.5 (≈ 6.89 µM) | 1.56 (≈ 0.86 µM) | 1.56 | 1.56 (≈ 0.86 µM)
